Literature values, collected in patent US20110144207A1, “ARYL ALKYL CARBOXYLIC ACID SALTS, PROCESS FOR PREPARATION AND DOSAGE FORMS” (SHASUN CHEMICALS AND DRUGS LIMITED, priority 2008, published 2011).
Structures can show the parent of a compound that is named as a salt. Where two headings read alike, the source gives them in different places. Blank lines part the entries; values can stand above or below the molecule they belong to.

How the values were obtained:
[1] = as described in EP application 1149828
[2] = compared with conventional ibuprofen

hygroscopic property ([1]; sodium salt): hygroscopic
Structure (SMILES): O=C(O)Cc1ccccc1Nc1c(Cl)cccc1Cl [diclofenac sodium salt]

hygroscopic property ([1]; sodium salt hemihydrate): no hygroscopic property
Structure (SMILES): O=C(O)Cc1ccccc1Nc1c(Cl)cccc1Cl [diclofenac sodium salt hemihydrate]

Cmax (peak concentration) [2]: significantly higher
tmax (time to peak concentration) [2]: earlier
Structure (SMILES): CC(C)Cc1ccc(C(C)C(=O)O)cc1.O.O.[Na] (stereo not shown) [ibuprofen sodium dihydrate, Ibuprofen Sodium Dihydrate]
